Experimental findings from patent US8258295B2, “Triazine derivatives, compositions containing such derivatives, and methods of treatment of cancer and autoimmune diseases using such derivatives” (Prometic Biosciences Inc., priority 2007, dated 2012) are described below.

Test [1] deals with DA-3 breast tumor. Put plainly: Primary DA-3 breast tumor in mice. The test is classed as in vivo. To be noted: FIG. 4B; compound I IV 50 mg/kg, alone or with cyclophosphamide; up to day 35.
Test [2] deals with NZB×NZW mice. Briefly: Systemic lupus erythematosus model, NZB×NZW mice. The test is classed as in vivo. To be noted: IV once a week from week 10 to week 46; FIG. 12. The source says:
New Zealand mice of the F1 hybrid cross NZB×NZW develop most of the autoimmune abnormalities seen in human SLE and die from SLE-like immune complex (IC)-mediated glomerulonephritis. The mice develop high titers of anti-DNA (double-strand and single-strand) and nuclear extract (NE) antibodies, as well as SLE-related clinical manifestations including leukopenia, thrombocytopenia, proteinuria, and glomerulonephritis. These mice develop anti-DNA antibodies after the age of three months, with a peak of anti-DNA antibody response occurring at seven months. Subsequently, the serum concentration of anti-DNA antibodies declines, presumably as a consequence of progressive uremia. The first serological manifestations of the disease occurs at about 150 days (i.e., five months). Their survival is evaluated at approximately 250 days.
Intravenous administration of compound or vehicle was undertaken once a week from week 10 to week 46.

The subject of test [3] is PC-3 cells. Briefly: In vitro PC-3 cell adhesion to extracellular matrix components. The test is classed as cell-based, human. To be noted: different concentrations. The protocol: An in vitro cell adhesion assay was used to assess the effect of the compounds on cancer cell adhesion. Microtiter 96-well plates were coated for 1 hr at room temperature with […] of adhesive ligands previously diluted to 5 μg/ml for laminin, 10 μg/ml for MATRIGEL™ basement membrane matrix, or 10 μg/ml for collagen in PBS. The wells were blocked with a solution of 1% BSA in PBS (100 μl/well) for 1 hr at 37° C. Subconfluent cultures of PC-3 cells were incubated with a 5 μM solution of calcein-AM for 30 min at 37° C., and then free calcein-AM was washed out (30 min) by incubation of the PC-3 cells in media without calcein-AM. Calcein-AM-labeled cells were trypsinized, washed, and resuspended in adhesion buffer (RPMI-1640, 10% FBS supplemented with 1 mM of MgCl2). Labeled PC-3 cells were preincubated in absence or presence of compounds for 30 min and then a final volume of 100 μl of preincubated cells were allowed to attach at 37° C. in a humidified incubator for 15 min, 30 min, or 60 min at 37° C. Nonattached cells were removed by two washes with PBS and attached cells were lysed with 100 μl of a 1% Triton X-100 solution in PBS. Plates were read on a Tecan GENios Plus fluorescent reader with an excitation wavelength of 485 nm and an emission wavelength of 530 nm. The number of attached cells was calculated based upon standard curves. Nonspecific cell attachment (attachment to wells coated with BSA) was always less than 5%.

For test [4], the system named is DNBS-induced colitis. Briefly: DNBS-induced colitis in CD1 mice. The test is classed as in vivo. To be noted: vs vehicle. The protocol: The 2,4-dinitrobenzene sulfonic acid (DNBS) induced experimental colitis mouse model serves as a model of inflammatory bowel disease. On day 0, CD1 mice were sensitized with DNBS by intra-colinic instillation of 0.1 ml of an ethanolic solution (30%) of DNBS (40 mg/ml). Compound V was administered orally once a day for four consecutive days at 25 mg/kg and 50 mg/kg, starting one hour after sensitization with DNBS. On the fourth day, mice were sacrificed and 8 cm of the distal colon was collected and opened longitudinally for macroscopic evaluation.

Test [5] concerns experimental autoimmune encephalomyelitis (EAE). Briefly: PLP-induced experimental autoimmune encephalomyelitis (EAE) in SJL mice. The test is classed as in vivo. How it is done:
The PLP-induced experimental autoimmune encephalomyelitis (EAE) mouse model serves as a model of multiple sclerosis. On day O, SJL mice were immunized with 75 μg of PLP (139-151) emulsified in Freund's complete adjuvant (200 μl emulsion per mouse s.c. divided among four sites) and with pertussis toxin (200 ng, i.p.). The i.p. injection of pertussis toxin was repeated on day 2. Compound V was administered orally once a day at 25 mg/kg and 50 mg/kg, starting at day 0 and until 30 days post immunization, six times a week. […] Clinical grading of symptoms was carried out according to the following scale: 0=no illness, 1=flaccid tail, 2=moderate paraparesis, 3=severe paraparesis, 4=moribound state, 5=death.

Test [6] concerns xenograft human prostate PC-3 tumor. Put plainly: Xenograft human prostate PC-3 tumor in nude mice. To be noted: FIG. 10A; CD1 nu/nu mice; compound IV 5 mg/kg. The test is classed as in vivo, mouse. How it is done:
PC-3 cells were grown in RPMI-1640 containing 10% fetal bovine serum. […] The animals were then serially monitored by manual palpation for evidence of tumor. […] Serial tumor volume was obtained by bi-dimensional diameter measurements with calipers, using the formula 0.4 (a×b^2) where “a” was the major tumor diameter and “b” the minor perpendicular diameter.

Take `NCCCCCNc1nc(NCCc2ccc(O)cc2)nc(Nc2cccc(F)c2)n1` [Compound I]: the “effect on DA-3 tumor growth” value in test [1] is reported as “weak inhibitory effect”. Further, the “mortality of NZB×NZW mice” value in test [2] is on record as “reduces the mortality”.
`NCCCCCNc1nc(NCCc2ccc(O)cc2)nc(Nc2ccc(F)cc2)n1` [Compound V]: the “PC-3 cell adhesion to laminin” value in test [3] (FIG. 1A) is given as “inhibits PC-3 cells adhesion in a dose dependent fashion”. The “PC-3 cell adhesion to MATRIGEL basement membrane matrix” value in test [3] (FIG. 1B) was “inhibits PC-3 cells adhesion in a dose dependent fashion”. Also, the “PC-3 cell adhesion to collagen” value in test [3] (FIG. 1C) is given as “inhibits PC-3 cells adhesion in a dose dependent fashion”. The “DNBS-induced macroscopic damage area of the colon mucosal tissue” value in test [4] (oral 25 mg/kg and 50 mg/kg, FIG. 22) was “strong and significant decrease”. Moreover, the body weight result in test [4] (oral once a day for four days, 25 mg/kg and 50 mg/kg) was “weak but significant increase of body weight”. Moreover, in test [5] (oral 50 mg/kg, vs vehicle), the “activity on clinical signs of EAE” value was “significant activity”. For the same compound, the “appearance of clinical signs of EAE” value in test [5] (oral once a day, 25 mg/kg and 50 mg/kg, until 30 days, FIG. 23) is “reduces in a dose dependent manner the appearance of signs of EAE”.
In the case of `NCCCCCNc1nc(NCCc2ccc(S(N)(=O)=O)cc2)nc(Nc2cccc(F)c2)n1` [Compound II], in test [6], the “effect on PC-3 tumor growth” value is “cytostatic (no growth) effect up to day 42”.
